Source: patent US20230348450A1, “CARBOXYLIC ACID-CONTAINING COMPOUNDS AS MODULATORS OF BIS-PHOSPHOGLYCERATE MUTASE FOR THE TREATMENT OF SICKLE CELL DISEASE” (Genzyme Corporation, priority 2020, published 2023)

What was measured:
[1] = target: hBPGM (Homo sapiens (Human), UniProt P07738); experiment: BPGM Synthase Assay; format: biochemical; conditions: Table 6 additional results; read-out: huBPGM: synthase Enzyme IC50
Summary of the method: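 BPGM (5 nM) with GAPDH (0.4 U/mL) was incubated with compound for 30 min at RT in pH 7.4 Tris buffer with 3.23 mM KH2PO4 and 1 mM DTT. Reaction ran 60 min with NAD, 3PG and GAP (substrate solution 2 mM, 20 μM and 800 μM). After koningic acid stop, NADH fluorescence was read, then resorufin from diaphorase/resazurin coupling.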

[2] = target: human Bisphosphoglycerate mutase (hBPGM) (Homo sapiens (Human), UniProt P07738); experiment: BPGM Phosphatase Assay; format: biochemical; conditions: Table 6 additional results; read-out: huBPGM: phosphatase Enzyme EC50
Method: Solutions of the test compounds were then added to the plate and the DMSO content was normalized across the plate. The plate was incubated at RT for 15 min. Next, the substrate 2,3-BPG (5 μL) was added to all the wells, and the plate was sealed and incubated for 24 hr at RT. After incubation, BIOMOL green dye (40 μL) was added to all the wells, the plate was shaken to mix, and the plate was incubated at RT for 20-30 min.

Chain of human Bisphosphoglycerate mutase (hBPGM) (P07738 whole entry): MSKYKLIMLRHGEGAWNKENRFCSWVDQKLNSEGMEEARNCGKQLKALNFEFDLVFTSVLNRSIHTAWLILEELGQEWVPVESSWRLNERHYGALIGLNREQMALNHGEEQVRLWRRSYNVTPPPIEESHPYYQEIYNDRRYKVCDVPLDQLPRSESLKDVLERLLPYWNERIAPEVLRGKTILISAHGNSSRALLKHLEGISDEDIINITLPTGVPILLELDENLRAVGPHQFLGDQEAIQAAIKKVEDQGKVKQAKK
Chain of hBPGM (P07738 whole entry, looked up): as the sequence (P07738 whole entry) above

| Compound | IC50 [1] | EC50 [2] |
| --- | --- | --- |
| Cc1nc(C(=O)c2ccn(C)n2)sc1-c1csc(-c2ccc(C(=O)O)c(O)c2)n1 [Example 190] | 360 nM | 610 nM |
| Cc1nc(C)c(-c2cccc(-c3cc(O)c(C(=O)O)cc3F)n2)s1 [Example 259] | 570 nM | > 25000 nM |
| COCCOCCOCCOCc1nc(C)c(-c2csc(-c3ccc(C(=O)O)cc3)n2)s1 [Example 270] | 4600 nM | > 25000 nM |
| Cc1nc(COCC(N)=O)sc1-c1csc(-c2cc(O)c(C(=O)O)cc2F)n1 [Example 156] | 350 nM | 1500 nM |
| Cc1nc(Cc2ccccc2)sc1-c1csc(-c2ccc(C(=O)O)c(O)c2)n1 [Example 280] | 330 nM | 140 nM |
| Cc1nc(COc2ncccn2)sc1-c1cccc(-c2csc(C(=O)O)c2)n1 [Example 79] | 550 nM | 110 nM |
| CC(=O)Nc1cccc(OCc2nc(C)c(-c3csc(-c4cc(O)c(C(=O)O)cc4F)n3)s2)n1 [Example 145] | 250 nM | 50 nM |
| Cc1nc(Cc2cccnc2)sc1-c1cccc(-c2ccc(C(=O)O)cc2)c1 [Example 277] | 860 nM | 1100 nM |
| Cc1nc(Cc2ccccc2)sc1-c1cccc(-c2cc(O)c(C(=O)O)cc2F)n1 [Example 162] | 140 nM | 60 nM |
| Cc1nc(CNC(=O)C2CC2)sc1-c1csc(-c2ccc(C(=O)O)c(O)c2)n1 [Example 249] | 180 nM | 210 nM |
| Cc1nc(CNC2CCCOC2)sc1-c1cccc(-c2ccc(C(=O)O)cc2)c1 (stereo not shown) [Example 52] | 16000 nM | > 25000 nM |
| Cc1nc(CN)sc1-c1csc(-c2ccc(C(=O)O)c(O)c2)n1 [Example 230] | 4400 nM | > 25000 nM |
| Cc1nc(CNc2ncccn2)sc1-c1cccc(-c2ccc(C(=O)O)cc2)c1 [Example 80] | 220 nM | 1700 nM |
| CCOC(=O)NCc1nc(C)c(-c2csc(-c3cc(O)c(C(=O)O)cc3F)n2)s1 [Example 227] | 76 nM | 90 nM |
| Cc1nc(CNC(=O)C(C)(C)C)sc1-c1cccc(-c2ccc(C(=O)O)cc2)c1 [Example 73] | 2200 nM | > 25000 nM |
| Cc1nc(CNC(=O)CCN(C)C)sc1-c1csc(-c2cc(O)c(C(=O)O)cc2F)n1 [Example 115] | 670 nM | 180 nM |
| Cc1nc(CN2CCOC2=O)sc1-c1cccc(-c2ccc(C(=O)O)c(O)c2)c1 [Example 263] | 1300 nM | 1400 nM |
| Cc1nc(CNC(=O)C(=O)N(C)C)sc1-c1csc(-c2cc(O)c(C(=O)O)cc2F)n1 [Example 203] | 210 nM | 980 nM |
| Cc1nc(Cc2cccnc2)sc1-c1csc(-c2cc(O)c(C(=O)O)cc2F)n1 [Example 228] | 87 nM | 55 nM |
| Cc1nc(CNC(=O)C2CC2)sc1-c1csc(-c2cc(O)c(C(=O)O)cc2F)c1 [Example 233] | 78 nM | 110 nM |
| Cc1nc(COC(N)=O)sc1-c1cccc(-c2ccc(C(=O)O)c(O)c2)c1 [Example 252] | 1000 nM | 1000 nM |
| Cc1nc(COc2ccccn2)sc1-c1cccc(-c2cc(O)c(C(=O)O)cc2F)n1 [Example 164] | 170 nM | 70 nM |
| Cc1ccc(OCc2nc(C)c(-c3cccc(-c4ccc(C(=O)O)c(O)c4)c3)s2)nc1 [Example 82] | 1100 nM | 210 nM |
| Cc1nc(Cc2ccccc2)sc1-c1cccc(-c2ccc(C(=O)O)c(O)c2)c1 [Example 289] | 1200 nM | 130 nM |
| Cc1nc(COC(=O)N2CCN(C)CC2)sc1-c1csc(-c2cc(O)c(C(=O)O)cc2F)n1 [Example 118] | 180 nM | 130 nM |

| Compound | IC50 [1] | EC50 [2] |
| --- | --- | --- |
| COC(=O)NCc1nc(C)c(-c2cccc(-c3ccc(C(=O)O)c(O)c3)c2)s1 [Example 272] | 290 nM | 520 nM |
| CC(=O)Nc1nc(C)c(-c2csc(-c3cc(O)c(C(=O)O)cc3F)n2)s1 [Example 194] | 250 nM | 140 nM |
| COC(=O)NCc1nc(C)c(-c2csc(-c3cc(O)c(C(=O)O)cc3Cl)n2)s1 [Example 211] | 100 nM | 190 nM |
| Cc1nc(CNC(=O)OCCN(C)C)sc1-c1csc(-c2cc(O)c(C(=O)O)cc2F)n1 [Example 114] | 150 nM | 170 nM |
| Cc1nc(CNC(=O)C2CCNCC2)sc1-c1csc(-c2cc(O)c(C(=O)O)cc2F)n1 [Example 125] | 410 nM | 340 nM |
| Cc1nc(CNC2CCOC2)sc1-c1cccc(-c2ccc(C(=O)O)cc2)c1 (stereo not shown) [Example 50] | > 25000 nM | > 25000 nM |
| Cc1nc(CNC(=O)c2ccn(C)n2)sc1-c1csc(-c2cc(O)c(C(=O)O)cc2F)n1 [Example 173] | 49 nM | 100 nM |
| Cc1nc(CNC(=O)c2cccnn2)sc1-c1csc(-c2cc(O)c(C(=O)O)cc2F)n1 [Example 197] | 24 nM | 220 nM |
| Cc1nc(CNC(=O)c2ccccc2)sc1-c1csc(-c2cc(O)c(C(=O)O)cc2F)n1 [Example 212] | 160 nM | 100 nM |
| Cc1nc(CNC(=O)OC2CC2)sc1-c1csc(-c2cc(O)c(C(=O)O)cc2F)n1 [Example 215] | 95 nM | 55 nM |
| Cc1nc(Cn2c(C#N)cccc2=O)sc1-c1cccc(-c2ccc(C(=O)O)c(O)c2)c1 [Example 103] | 950 nM | 130 nM |
| Cc1nc(CNC(=O)C(C)(C)C)sc1-c1cccc(-c2ccc(C(=O)O)c(O)c2)c1 [Example 81] | 450 nM | 1100 nM |
| Cc1nc(COC(=O)N(C)C)sc1-c1cccc(-c2ccc(C(=O)O)cc2)c1 [Example 67] | 870 nM | 550 nM |
| Cc1nc(COc2cccnc2)sc1-c1cccc(-c2ccc(C(=O)O)c(O)c2)c1 [Example 102] | 900 nM | 360 nM |
| Cc1cccc(OCc2nc(C)c(-c3cccc(-c4ccc(C(=O)O)c(O)c4)c3)s2)n1 [Example 269] | 2000 nM | 270 nM |
| Cc1nc(CNS(C)(=O)=O)sc1-c1csc(-c2cc(O)c(C(=O)O)cc2F)n1 [Example 224] | 260 nM | 300 nM |
| Cc1nc(C)c(-c2csc(-c3cc(O)c(C(=O)O)c(F)c3)n2)s1 [Example 255] | 760 nM | 1800 nM |
| Cc1nc(COc2ncccn2)sc1-c1cccc(-c2ccc(C(=O)O)cc2)n1 [Example 95] | 280 nM | 2100 nM |
| Cc1nc(Cc2ccncc2)sc1-c1cccc(-c2ccc(C(=O)O)c(O)c2)c1 [Example 281] | 730 nM | 120 nM |
| Cc1nc(CNC(=O)c2cc[nH]n2)sc1-c1csc(-c2cc(O)c(C(=O)O)cc2F)n1 [Example 172] | 40 nM | 40 nM |
| COC(=O)NCc1nc(C)c(-c2ccnc(-c3cc(O)c(C(=O)O)cc3F)n2)s1 [Example 155] | 310 nM | > 25000 nM |
| Cc1ccnc(NCc2nc(C)c(-c3cccc(-c4ccc(C(=O)O)c(O)c4)c3)s2)c1 [Example 68] | 1400 nM | 60 nM |
| Cc1cccc(Cc2nc(C)c(-c3cccc(-c4ccc(C(=O)O)c(O)c4)c3)s2)n1 [Example 279] | 2600 nM | 6900 nM |
| Cc1nc(CNC2CCC2)sc1-c1csc(-c2cc(O)c(C(=O)O)cc2F)n1 [Example 186] | 380 nM | 30 nM |
| Cc1nc(COc2ccccn2)sc1-c1cccc(-c2ccc(C(=O)O)cc2)c1 [Example 72] | 480 nM | > 25000 nM |
